According to patent publication US6534524B1, “Indazole compounds and pharmaceutical compositions for inhibiting protein kinases, and methods for their use” (Agouron Pharmaceuticals, Inc., priority 1999, dated 2003):
Read-outs that look alike come from different tables or passages of the source. Each block holds one molecule with its values, some of them ahead of it.

What was measured:
[1] = target: unphosphorylated VEGF-R2Δ50 (FLVK) (Homo sapiens, UniProt P35968, DEL940-989/E990V); experiment: VEGF-R2 coupled spectrophotometric assay, unphosphorylated VEGF-R2Δ50 (FLVK); conditions: for Ki: FLVK Ki, Table 1; for inhibition at 0.05 µM: read-out: FLVK % inhibition
[2] = Determination of inhibitor concentration in mouse plasma after intraperitoneal and oral dosing; format: in vivo
Description: Blood collection was via ocular bleed at 0.5, 1, 4 hr with the final time point, 7 hour, via intracardiac puncture. The blood was centrifuged to collect plasma, which was then stored at −80° C. until analysis. Samples were prepared for analysis using an internal standard and sodium hydroxide. After vortexing, ethyl acetate was added and mixed for 15-20 minutes at ambient temperature. […] The samples were then analyzed via HPLC or LC-MS. Compound levels were quantitated by generating a standard curve of known compound concentration in mouse plasma.

[3] = tested on: human umbilical vein endothelial cells (HUVEC); experiment: HUVEC proliferation assay (VEGF-stimulated, MTT); format: cell-based; conditions: Homo sapiens, HUVEC, + albumin; read-out: HUVEC + albumin IC50
[4] = IP, 25 mg/kg, vehicle PEG400:H2O pH 2.3 30:70
[5] = PO, 50 mg/kg, vehicle PEG400:H2O pH 2.3 30:70
[6] = female, IP, 25 mg/kg, vehicle PEG400:H2O pH 2.3 30:70
[7] = female, IP, 25 mg/kg, vehicle PEG400:H2O pH 2.3 30:70, read-out: Cmin (7 hr conc.)
[8] = female, PO, 50 mg/kg, vehicle PEG400:H2O pH 2.3 30:70, read-out: Cmin (7 hr conc.)
[9] = female, PO, 25 mg/kg, vehicle PEG400:H2O pH 2.3 30:70, read-out: Cmin (7 hr conc.)
[10] = PO, 25 mg/kg, vehicle PEG400:H2O pH 2.3 30:70
[11] = PO, 50 mg/kg, vehicle PEG400:H2O pH 2.3 60:40

Sequence of unphosphorylated VEGF-R2Δ50 (FLVK) (P35968 with tags, fused parts or gaps DEL940-989/E990V limits assumed): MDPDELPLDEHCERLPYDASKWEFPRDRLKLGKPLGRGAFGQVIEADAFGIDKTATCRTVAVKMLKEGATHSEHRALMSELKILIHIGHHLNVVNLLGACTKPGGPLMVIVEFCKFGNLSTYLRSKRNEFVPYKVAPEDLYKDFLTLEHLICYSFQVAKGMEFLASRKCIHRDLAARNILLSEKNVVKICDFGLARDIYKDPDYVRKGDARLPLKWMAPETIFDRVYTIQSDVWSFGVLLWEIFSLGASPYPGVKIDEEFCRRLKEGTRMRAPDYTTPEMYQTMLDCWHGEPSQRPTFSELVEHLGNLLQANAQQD

Structure (SMILES): CN(c1cccc(NC(=O)OCc2ccccc2)c1)c1ccc2c(/C=C/c3ccccc3)n[nH]c2c1 [Example 12(c), {3-[Methyl-(3-styryl-1H-indazol-6-yl)-amino]-phenyl}-carbamic Acid Benzyl Ester]
- Ki [1]: 1.6 nM

Structure (SMILES): CN(c1ccccc1)c1ccc2c(/C=C/c3ccccc3)n[nH]c2c1 [Example 14, Methyl-phenyl-(3-styryl-1H-indazol-6-yl)-amine]
- Ki [1]: 15 nM

Structure (SMILES): CN(c1cccc(NC(=O)c2cccc(C(F)(F)F)c2)c1)c1ccc2c(/C=C/c3ccc4c(c3)OCO4)n[nH]c2c1 [Example 16(d), N-(3-{[3-(2-Benzo[1,3]dioxol-5-yl-vinyl)-1H-indazol-6-yl]-methyl-amino}-phenyl)-3-trifluoromethyl-benzamide]
- Ki [1]: 0.43 nM

Structure (SMILES): CC(=O)c1cccc(C(=O)Nc2cccc(N(C)c3ccc4c(/C=C/c5ccc6c(c5)OCO6)n[nH]c4c3)c2)c1 [Example 16(e), 3-Acetyl-N-(3-{[3-(2-benzo[1,3]dioxol-5-yl-vinyl)-1H-indazol-6-yl]-methyl-amino}-phenyl)-benzamide]
- Ki [1]: 1.3 nM

Structure (SMILES): Nc1cccc(C(=O)c2ccc3c(/C=C/c4ccccc4)n[nH]c3c2)c1 [Example 18, (3-Amino-phenyl)-(3-styryl-1H-indazol-6-yl)-methanone]
- Ki [1]: 12.5 nM

Structure (SMILES): O=C(c1cccc(NC(=O)c2cc(Cl)ccn2)c1)c1ccc2c(/C=C/c3ccccc3)n[nH]c2c1 [Example 19(n), 6-[3-(4-Chloropyridin-2-ylcarboxamido)benzoyl]-3-E-styryl-1H-indazole]
- Ki [1]: 0.54 nM

Structure (SMILES): CNC(C(=O)Nc1cccc(C(=O)c2ccc3c(/C=C/c4ccccc4)n[nH]c3c2)c1)c1ccccc1 (stereo not drawn) [Example 19(p), 6-[3-(2-Methylamino-2-phenylacetamido)benzoyl]-3-E-styryl-1H-indazole]
- Ki [1]: 1.5 nM

Structure (SMILES): C=C(c1cccc(N)c1)c1ccc2c(/C=C/c3ccccc3)n[nH]c2c1 [Example 21, 6-(1-(3-Aminophenyl)-vinyl)-3-styryl-1H-indazole]
- Ki [1]: 4.6 nM

Structure (SMILES): C=C(c1cccc(NC(=O)OCc2ccccc2)c1)c1ccc2c(/C=C/c3ccccc3)n[nH]c2c1 [Example 22(c)]
- Ki [1]: 0.64 nM

Structure (SMILES): O=C(Nc1cccc(Oc2ccc3c(/C=C/c4ccccc4)n[nH]c3c2)c1)c1cccc2[nH]ccc12 [Example 30(d), 6-[3-(indol-4-ylcarboxamido)phenoxy]-3-E-stryrylindazole]
- Ki [1]: 0.37 nM

Structure (SMILES): CCn1nc(C)cc1C(=O)Nc1cccc(Oc2ccc3c(/C=C/c4ccccc4)n[nH]c3c2)c1 [Example 30(e), 6-[3-((1-Ethyl-3-methyl-1H-pyrazol-5-yl)carboxamido)phenoxy]-3-E-stryrylindazole]
- Ki [1]: 0.37 nM

Structure (SMILES): Cc1cc(C(=O)Nc2cccc(Oc3ccc4c(/C=C/c5ccccn5)n[nH]c4c3)c2)nn1C [Example 31(b), 6-[3-((1,5-Dimethyl-1H-pyrazol-3-yl)carboxamido)phenoxy]-3-E-[2-(pyridin-2-yl)ethenyl]-1H-indazole]
- plasma half-life (T1/2) [2, 4]: 1.7 h
- AUClast [2, 5]: 2071 ng·h/mL
- plasma half-life (T1/2) [2, 5]: 1.0 h
- AUC(0-t) [2, 6]: > 7040 ng·h/mL
- concentration at 7 h [2, 7]: 177 ng/mL
- concentration at 7 h [2, 8]: 15 ng/mL
- Ki [1]: < 0.1 nM

Structure (SMILES): O=C(Nc1cccc(Oc2ccc3c(/C=C/c4c[nH]cn4)n[nH]c3c2)c1)c1ccccc1 [Example 32(a), 6-[3-Benzamidophenoxy]-3-E-[2-(1H-imidazol-4-yl)ethenyl]-1H-indazole]
- AUClast [2, 5]: 4190 ng·h/mL
- AUC(0-t) [2, 6]: > 20600 ng·h/mL
- concentration at 7 h [2, 7]: 1270 ng/mL
- AUC(0-t) ([2]; female, PO, 25 mg/kg, vehicle PEG400:H2O pH 2.3 30:70): 490 ng·h/mL
- concentration at 7 h [2, 9]: 18 ng/mL
- concentration at 7 h [2, 8]: 40 ng/mL
- Ki [1]: < 0.1 nM

Structure (SMILES): CCn1nc(C)cc1C(=O)Nc1cccc(Oc2ccc3c(/C=C/c4c[nH]cn4)n[nH]c3c2)c1 [Example 32(b), 6-[3-((1-Ethyl-3-methyl-1H-pyrazol-5-yl)carboxamido)phenoxy]-3-E-[2-(1H-imidazol-4-yl)ethenyl]-1H-indazole]
- Ki [1]: 0.08 nM

Structure (SMILES): CCn1nc(C)cc1C(=O)Nc1cccc(Oc2ccc3c(/C=C/c4c[nH]c(C)n4)n[nH]c3c2)c1 [Example 32(c), 6-[3-((1-Ethyl-3-methyl-1H-pyrazol-5-yl)carboxamido)phenoxy]-3-E-[2-(2-methylimidazol-4-yl)ethenyl]-1H-indazole]
- AUClast [2, 10]: 388 ng·h/mL
- Cmax [2, 10]: 161 ng/mL
- plasma half-life (T1/2) [2, 10]: 2.4 h
- concentration at 7 h [2, 9]: 10 ng/mL
- Ki [1]: 0.27 nM

Structure (SMILES): O=C(NOCc1ccccc1)c1ccccc1Sc1ccc2c(/C=C/c3ccccn3)n[nH]c2c1 [Example 35(i), 6-[2-(Benzyloxycarbamoyl)phenylsulfanyl]-3-E-[2-(pyridin-2-yl)ethenyl]-1H-indazole]
- IC50 [3]: 4.7 nM
- inhibition at 0.05 µM [1]: 100%

Structure (SMILES): NNC(=O)c1ccccc1Sc1ccc2c(/C=C/c3ccccn3)n[nH]c2c1 [Example 35(ii), 6-[2-(Aminocarbamoyl)phenylsulfanyl]-3-E-[2-(pyridin-2-yl)ethenyl]-1H-indazole]
- inhibition at 0.05 µM [1]: 44%

Structure (SMILES): Nc1ccc(CNC(=O)c2ccccc2Sc2ccc3c(/C=C/c4ccccn4)n[nH]c3c2)cc1 [Example 35(l)]
- inhibition at 0.05 µM [1]: 90%

Structure (SMILES): O=C(NNC(=O)c1ccccc1Sc1ccc2c(/C=C/c3ccccn3)n[nH]c2c1)c1cccs1 [Example 35(m), 6-[2-((Thien-2-ylhydrazido)carbonyl)phenylsulfanyl]-3-E-[2-(pyridin-2-yl)ethenyl]-1H-indazole]
- AUClast [2, 4]: 226 ng·h/mL
- plasma half-life (T1/2) [2, 4]: 4.0 h
- AUClast [2, 10]: 10 ng·h/mL
- Cmax [2, 10]: 7 ng/mL
- concentration at 7 h [2, 7]: 17 ng/mL
- concentration at 7 h [2, 9]: 0 ng/mL
- Ki [1]: 0.04 nM

Structure (SMILES): O=C(Nc1cccc(C(=O)c2ccc3c(/C=C/c4ccccn4)n[nH]c3c2)c1)c1ccncc1 [Example 41(b), 6-[3-(Pyridin-4-ylcarboxamido)benzoyl]-3-E-[2-(pyridin-2-yl)ethenyl]-1H-indazole]
- plasma half-life (T1/2) ([2]; IP, 25 mg/kg, vehicle PEG400:H2O pH 2.3 60:40): 4.7 h
- AUClast [2, 11]: 759 ng·h/mL
- plasma half-life (T1/2) [2, 11]: 1.1 h
- AUC(0-t) ([2]; female, IP, 25 mg/kg, vehicle PEG400:H2O pH 2.3 60:40): > 5870 ng·h/mL
- Cmax ([2]; female, IP, 25 mg/kg, vehicle PEG400:H2O pH 2.3 60:40, read-out: Cmax): > 1000 ng/mL
- concentration at 7 h ([2]; female, IP, 25 mg/kg, vehicle PEG400:H2O pH 2.3 60:40, read-out: Cmin (7 hr conc.)): 412 ng/mL
- concentration at 7 h ([2]; female, PO, 50 mg/kg, vehicle PEG400:H2O pH 2.3 60:40, read-out: Cmin (7 hr conc.)): 6 ng/mL
- Ki [1]: 0.26 nM

- Ki [1]: 2.95 nM
Structure (SMILES): O=C(c1cccc(NC(=O)C2CC2)c1)c1ccc2c(/C=C/c3ccccn3)n[nH]c2c1 [Example 41(k), 6-[3-(Cyclopropylcarboxanido)benzoyl]-3-E-[2-(pyridin-2-yl)ethenyl]-1H-indazole]

Structure (SMILES): Cn1nc(C(C)(C)C)cc1C(=O)Nc1cccc(C(=O)c2ccc3c(/C=C/c4ccccn4)n[nH]c3c2)c1 [Example 41(n), 6-[3-((3-t-Butyl-1-methyl-1H-pyrazol-5-yl)carboxamido)benzoyl]-3-E-[2-(pyridin-2-yl)ethenyl]-1H-indazole]
- AUClast [2, 4]: 9408 ng·h/mL
- Cmax [2, 4]: 1976 ng/mL
- plasma half-life (T1/2) [2, 4]: 3.2 h
- AUClast [2, 5]: 9066 ng·h/mL
- Cmax [2, 5]: 2245 ng/mL
- plasma half-life (T1/2) [2, 5]: 1.9 h
- concentration at 7 h [2, 7]: 465 ng/mL
- concentration at 7 h [2, 8]: 253 ng/mL
- Ki [1]: 0.2 nM

Structure (SMILES): CC(C)(C)c1ccc(C(=O)Nc2cccc(C(=O)c3ccc4c(/C=C/c5ccccn5)n[nH]c4c3)c2)cc1 [Example 41(s), 6-[3-(4-t-Butylbenzanido)benzoyl]-3-E-[2-(pyridin-2-yl)ethenyl]-1H-indazole]
- Ki [1]: 0.23 nM

Structure (SMILES): Cc1nc(/C=C/c2n[nH]c3cc(C(=O)c4cccc(NC(=O)c5ccccc5)c4)ccc23)cs1 [Example 42(c), 6-(3-Benzanidobenzoyl)-3-E-[2-(2-methylthiazol-4-yl)ethenyl]-1H-indazole]
- IC50 [3]: 1 to 3 nM
- inhibition at 0.05 µM [1]: 95%
